Experimental data published in ChEMBL document CHEMBL1201862, “PubChem BioAssay data set” (2004).
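Values below derive from 48-hour exposures of cells grown in 96-well plates, with endpoints linearly interpolated between the two concentrations bracketing the appropriate inhibition level. GI50 marks 50% less growth.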 Calls of active or inactive are those of the source. Rule as the data show it: active = GI50 up to about 1.1 µM and inactive = higher.

Tests used:
Assay in all cases: NCI-60 cell line screen, 48 h
SN12C = test system: SN12C
NCI-H460 = test system: NCI-H460
HCT-15 = test system: HCT-15
KM12 = test system: KM12
DMS-114 = test system: DMS-114
Malme-3M = test system: Malme-3M
EKVX = test system: EKVX
LXFL 529 = test system: LXFL 529
IGROV-1 = test system: IGROV-1
CCRF-CEM = test system: CCRF-CEM
DMS-273 = test system: DMS-273
SK-MEL-2 = test system: SK-MEL-2
HL-60 = test system: HL-60
SR = test system: SR
M19-MEL = test system: M19-MEL
HCC 2998 = test system: HCC 2998
UO-31 = test system: UO-31
HOP-62 = test system: HOP-62
KM-20L2 = test system: KM-20L2
SF-295 = test system: SF-295
UACC-257 = test system: UACC-257
SW-620 = test system: SW-620
UACC-62 = test system: UACC-62
OVCAR-3 = test system: OVCAR-3
SF-268 = test system: SF-268
LOX IMVI = test system: LOX IMVI
HOP-92 = test system: HOP-92
RXF 393 = test system: RXF 393
OVCAR-5 = test system: OVCAR-5
ACHN = test system: ACHN
M14 = test system: M14
TK-10 = test system: TK-10
NCI-H226 = test system: NCI-H226
U-251 = test system: U-251
MOLT-4 = test system: MOLT-4
SK-OV-3 = test system: SK-OV-3
NCI-H23 = test system: NCI-H23
HT-29 = test system: HT-29
K562 = test system: K562
COLO 205 = test system: COLO 205
HCT-116 = test system: HCT-116
RPMI-8226 = test system: RPMI-8226
OVCAR-8 = test system: OVCAR-8
SK-MEL-28 = test system: SK-MEL-28
XF498 = test system: XF498

CCCCCCCSc1nc2c(C(=O)OCC)ncn2c2ccccc12
GI50 (SN12C): > 100 µM (inactive) | GI50 (NCI-H460): > 100 µM (inactive) | GI50 (HCT-15): > 100 µM | GI50 (KM12): > 100 µM (inactive) | GI50 (DMS-114): > 100 µM (inactive) | GI50 (Malme-3M): > 100 µM (inactive) | GI50 (EKVX): > 100 µM (inactive) | GI50 (LXFL 529): > 100 µM (inactive) | GI50 (IGROV-1): > 100 µM (inactive) | GI50 (CCRF-CEM): > 100 µM (inactive) | GI50 (DMS-273): > 100 µM (inactive) | GI50 (SK-MEL-2): > 100 µM (inactive) | GI50 (HL-60): > 100 µM (inactive) | GI50 (SR): > 100 µM (inactive) | GI50 (M19-MEL): > 100 µM (inactive) | GI50 (HCC 2998): > 100 µM (inactive) | GI50 (UO-31): > 100 µM (inactive) | GI50 (HOP-62): 43.3 µM (inactive) | GI50 (KM-20L2): > 100 µM (inactive) | GI50 (SF-295): 91.8 µM (inactive) | GI50 (UACC-257): > 100 µM (inactive) | GI50 (SW-620): > 100 µM (inactive) | GI50 (UACC-62): > 100 µM (inactive) | GI50 (OVCAR-3): > 100 µM (inactive) | GI50 (SF-268): > 100 µM (inactive) | GI50 (LOX IMVI): > 100 µM (inactive) | GI50 (HOP-92): 25.1 µM (inactive) | GI50 (RXF 393): > 100 µM (inactive) | GI50 (OVCAR-5): > 100 µM (inactive) | GI50 (ACHN): > 100 µM (inactive) | GI50 (M14): > 100 µM (inactive) | GI50 (TK-10): > 100 µM (inactive) | GI50 (NCI-H226): > 100 µM (inactive) | GI50 (U-251): > 100 µM (inactive) | GI50 (MOLT-4): > 100 µM (inactive) | GI50 (SK-OV-3): > 100 µM (inactive) | GI50 (NCI-H23): > 100 µM (inactive) | GI50 (HT-29): > 100 µM (inactive) | GI50 (K562): > 100 µM (inactive) | GI50 (COLO 205): > 100 µM (inactive) | GI50 (HCT-116): > 100 µM (inactive) | GI50 (RPMI-8226): > 100 µM (inactive) | GI50 (OVCAR-8): > 100 µM (inactive) | GI50 (SK-MEL-28): > 100 µM (inactive) | GI50 (XF498): > 100 µM (inactive)
